{"source": "patent US6830310B2", "about": "“Detectable markers in cationic polymeric fixers” (Hewlett-Packard Development Company, L.P., priority 2002, dated 2004)", "key": {"[1]": {"assay": "Solubility of indicator in polymonoguanadine fixer", "conditions": "for Solubility @ 0.01 %: 0.01% in 4 wt % polymonoguanadine fixer; for Solubility @ 0.1%: 0.1% in 4 wt % polymonoguanadine fixer", "text": "Fixer solutions were made by mixing a water based fixer containing a polymonoguanadine cationic polymer with an IR or UV absorber indicator.\n2) The solubility is based on the solubility of the compound in a 4 wt % polymonoguanadine fixer."}, "[2]": {"assay": "Color of the fixer solution in the presence of the compound", "format": "physicochemical", "excerpt": "3) “Color” refers to the color of the fixer solution in the presence of the compound."}}, "data": [{"molecule": "C(=Cc1ccccc1)c1ccccc1", "note": "[Stilbene]", "values": [{"measurement": "Solubility in the fixer vehicle", "setting": "[1]; fixer vehicle that is mostly water", "result": "not soluble"}]}, {"molecule": "O=S(=O)([O-])c1cc(Nc2nc(Nc3ccccc3)nc(N(CCO)CCO)n2)ccc1/C=C/c1ccc(Nc2nc(Nc3ccccc3)nc(N(CCO)CCO)n2)cc1S(=O)(=O)[O-].[Na+].[Na+]", "note": "[FluorescentBrightner28]", "values": [{"measurement": "Color", "setting": "[2]", "result": "Clear"}]}, {"molecule": "Cc1ccc2c(c1)sc(-c1ccc(N(C)C)cc1)[n+]2C.[Cl-]", "note": "[Thioflavin T]", "values": [{"measurement": "Color", "setting": "[2]", "result": "Yellow"}, {"measurement": "Solubility @ 0.01 %", "setting": "[1]", "result": "Yes"}, {"measurement": "Solubility @ 0.1%", "setting": "[1]", "result": "No"}]}, {"molecule": "CN1/C(=C/C=C/C=C/C=C/C2=[N+](C)c3ccccc3C2(C)C)C(C)(C)c2ccccc21.[I-]", "note": "[tricarbocyanine, 1,1′,3,3,3′,3′-Hexamethylindotricarbocyanine iodide]", "values": [{"measurement": "Solubility in polymonoguanadine thermal inkjet fixer", "setting": "[1]; 750 ppm", "result": "not soluble"}, {"measurement": "Solubility (general statement)", "setting": "[1]; in water / fixer", "result": "only limited solubility"}]}, {"molecule": "CCN1/C(=C/C=C2\\CCC(/C=C/c3sc4ccc(Cl)cc4[n+]3CC)=C2N(c2ccccc2)c2ccccc2)Sc2ccc(Cl)cc21.[O-][Cl+3]([O-])([O-])[O-]", "note": "[IR140]", "values": [{"measurement": "Color", "setting": "[2]", "result": "Pale Blue"}, {"measurement": "Solubility @ 0.01 %", "setting": "[1]", "result": "No"}, {"measurement": "Solubility @ 0.1%", "setting": "[1]", "result": "No"}]}, {"molecule": "Variamine Blue", "values": [{"measurement": "Color", "setting": "[2]", "result": "Yellow"}, {"measurement": "Solubility @ 0.01 %", "setting": "[1]", "result": "Yes"}, {"measurement": "Solubility @ 0.1%", "setting": "[1]", "result": "Yes"}]}, {"molecule": "CN(C)c1ccc2c(C(F)(F)F)cc(=O)oc2c1", "note": "[Coumarin 152]", "values": [{"measurement": "Solubility @ 0.01 %", "setting": "[1]", "result": "No"}, {"measurement": "Solubility @ 0.1%", "setting": "[1]", "result": "No"}]}, {"molecule": "CC1(C)C(/C=C/C=C/C=C/C=C2\\N(CCCCS(=O)(=O)O)c3ccc4ccccc4c3C2(C)C)=[N+](CCCCS(=O)(=O)[O-])c2ccc3ccccc3c21", "note": "[Indocyanine Green]", "values": [{"measurement": "Color", "setting": "[2]", "result": "Green"}, {"measurement": "Solubility @ 0.01 %", "setting": "[1]", "result": "No"}, {"measurement": "Solubility @ 0.1%", "setting": "[1]", "result": "No"}]}, {"molecule": "Cc1cc(O)nc2cc(N)ccc12", "note": "[Carbostyril 124]", "values": [{"measurement": "Color", "setting": "[2]", "result": "Clear"}, {"measurement": "Solubility @ 0.01 %", "setting": "[1]", "result": "Yes"}, {"measurement": "Solubility @ 0.1%", "setting": "[1]", "result": "No"}]}, {"molecule": "CN(C)c1ccc(C=Cc2ccccn2)cc1", "note": "[2-[4-(Dimethylamino)styryl]pyridine]", "values": [{"measurement": "Color", "setting": "[2]", "result": "Orange"}, {"measurement": "Solubility @ 0.1%", "setting": "[1]", "result": "No"}]}, {"molecule": "Cc1cc(=O)oc2cc(O)c(O)cc12", "note": "[4-Methylesculetin]", "values": [{"measurement": "Color", "setting": "[2]", "result": "Clear"}, {"measurement": "Solubility @ 0.01 %", "setting": "[1]", "result": "No"}, {"measurement": "Solubility @ 0.1%", "setting": "[1]", "result": "No"}]}, {"molecule": "CCN(CC)c1ccc2c(C)cc(=O)oc2c1", "note": "[7-Diethylamino-4-methyl coumarin, 7-diethylamino-4-methyl coumarin]", "values": [{"measurement": "Solubility @ 0.01 %", "setting": "[1]", "result": "Yes"}, {"measurement": "Solubility @ 0.1%", "setting": "[1]", "result": "Yes"}]}, {"molecule": "CCN(CC)CCc1c(C)c2ccc(O)cc2oc1=O.Cl", "note": "[3-[2-(diethylamino)ethyl]-7-hydroxy-4-methylcoumarin hydrochloride]", "values": [{"measurement": "Solubility @ 0.01 %", "setting": "[1]", "result": "Yes"}]}, {"molecule": "CCN=C1C=CC(=C(c2ccc(N(CC)CC)cc2)c2ccc(N(CC)CC)cc2)c2ccccc21.Cl", "note": "[Victoria Blue BO]", "values": [{"measurement": "Color", "setting": "[2]", "result": "Blue"}, {"measurement": "Solubility @ 0.01 %", "setting": "[1]", "result": "Yes"}]}, {"molecule": "CCN(CC)c1ccc2cc(-c3nc4ccccc4[nH]3)c(=O)oc2c1", "note": "[Coumarin 7]", "values": [{"measurement": "Color", "setting": "[2]", "result": "Yellow"}, {"measurement": "Solubility @ 0.01 %", "setting": "[1]", "result": "No"}, {"measurement": "Solubility @ 0.1%", "setting": "[1]", "result": "No"}]}, {"molecule": "Cc1ccc2nc(-c3ccc(N=NNc4ccc(-c5nc6ccc(C)c(S(=O)(=O)[O-])c6s5)cc4)cc3)sc2c1S(=O)(=O)[O-].[Na+].[Na+]", "note": "[Direct Yellow 9]", "values": [{"measurement": "Color", "setting": "[2]", "result": "Yellow"}, {"measurement": "Solubility @ 0.1%", "setting": "[1]", "result": "No"}]}, {"molecule": "Nc1ccc(C(=O)O)cc1", "note": "[4-Aminobenzoic acid (PABA), 4-Aminobenzoic acid]", "values": [{"measurement": "Color", "setting": "[2]", "result": "Clear"}, {"measurement": "Solubility @ 0.01 %", "setting": "[1]", "result": "Yes"}, {"measurement": "Solubility @ 0.1%", "setting": "[1]", "result": "Yes"}]}, {"molecule": "Cc1cc2nc3[nH]c(=O)[nH]c(=O)c3nc2cc1C", "note": "[Lumichrome]", "values": [{"measurement": "Color", "setting": "[2]", "result": "Clear"}, {"measurement": "Solubility @ 0.01 %", "setting": "[1]", "result": "No"}, {"measurement": "Solubility @ 0.1%", "setting": "[1]", "result": "No"}]}, {"molecule": "CCOc1ccc2c(ccc(/C=C/c3cccc([N+](=O)[O-])c3)[n+]2C)c1.COS(=O)(=O)[O-]", "note": "[Pinacryptol Yellow]", "values": [{"measurement": "Color", "setting": "[2]", "result": "Yellow"}, {"measurement": "Solubility @ 0.1%", "setting": "[1]", "result": "No"}]}]}
